Results as given in PubChem BioAssay AID2060487 (Molecular Pharmacology Branch, DTP, NCI, 2025).

Test system: 997537-175-T-J1-PDC complex spheroid viability
Assay: Anticancer human tumor 997537-175-T-J1-PDC patient-derived colon adenocarcinoma cell line growth inhibition [GQUAD]
Conditions: for IC50: curve of first compound; for viability, T/C: stronger effect = lower value
Summary of the method: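 Tumor cells were grown as complex spheroids with HUVEC endothelial cells and mesenchymal stem cells as stroma. G-quadruplex stabilizers were combined with targeted agents over half-log dilutions from near the clinical Cmax, or from 10 microM.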

[1] = second compound 0.0316 µM, first compound 0.000999 µM
[2] = second compound 0.0316 µM, first compound 0.00316 µM
[3] = second compound 0.0316 µM, first compound 0.00999 µM
[4] = second compound 0.0316 µM, first compound 0.0316 µM
[5] = second compound 0.0316 µM, first compound 0.0999 µM
[6] = second compound 0.0316 µM, first compound 0.316 µM
[7] = second compound 0.1 µM, first compound 0.000999 µM
[8] = second compound 0.1 µM, first compound 0.00316 µM
[9] = second compound 0.1 µM, first compound 0.00999 µM
[10] = second compound 0.1 µM, first compound 0.0316 µM
[11] = second compound 0.1 µM, first compound 0.0999 µM
[12] = second compound 0.1 µM, first compound 0.316 µM
[13] = second compound 0.316 µM, first compound 0.000999 µM
[14] = second compound 0.316 µM, first compound 0.00316 µM
[15] = second compound 0.316 µM, first compound 0.00999 µM
[16] = second compound 0.316 µM, first compound 0.0316 µM
[17] = second compound 0.316 µM, first compound 0.0999 µM
[18] = second compound 0.316 µM, first compound 0.316 µM
[19] = second compound 1 µM, first compound 0.000999 µM
[20] = second compound 1 µM, first compound 0.00316 µM
[21] = second compound 1 µM, first compound 0.00999 µM
[22] = second compound 1 µM, first compound 0.0316 µM
[23] = second compound 1 µM, first compound 0.0999 µM
[24] = second compound 1 µM, first compound 0.316 µM
[25] = second compound 3.16 µM, first compound 0.000999 µM
[26] = second compound 3.16 µM, first compound 0.00316 µM
[27] = second compound 3.16 µM, first compound 0.00999 µM
[28] = second compound 3.16 µM, first compound 0.0316 µM
[29] = second compound 3.16 µM, first compound 0.0999 µM
[30] = second compound 3.16 µM, first compound 0.316 µM
[31] = second compound 10 µM, first compound 0.000999 µM
[32] = second compound 10 µM, first compound 0.00316 µM
[33] = second compound 10 µM, first compound 0.00999 µM
[34] = second compound 10 µM, first compound 0.0316 µM
[35] = second compound 10 µM, first compound 0.0999 µM
[36] = second compound 10 µM, first compound 0.316 µM
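Note: spheroids exposed to the agents for 7 days.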
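Throughout, for viability, T/C: 100% = DMSO vehicle control viability.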

CC[C@@]1(O)C(=O)OCc2c1cc1n(c2=O)Cc2cc3c(CN(C)C)c(O)ccc3nc2-1 + Cc1cnc(CNC(=O)c2c(=O)c3ccc(N4CCCN(C)CC4)nc3n3c2sc2ccccc23)cn1
IC50 (second compound 0.0316 µM): > 0.316 µM
IC50 (second compound 0.1 µM): > 0.316 µM
IC50 (second compound 0.316 µM): > 0.316 µM
IC50 (second compound 1 µM): > 0.316 µM
IC50 (second compound 3.16 µM): > 0.316 µM
IC50 (second compound 10 µM): > 0.316 µM
viability, T/C [1]: 108%
viability, T/C [2]: 104%
viability, T/C [3]: 97.8%
viability, T/C [4]: 82%
viability, T/C [5]: 72.3%
viability, T/C [6]: 80.4%
viability, T/C [7]: 97.8%
viability, T/C [8]: 97.5%
viability, T/C [9]: 92.7%
viability, T/C [10]: 90.1%
viability, T/C [11]: 97.5%
viability, T/C [12]: 58%
viability, T/C [13]: 92.8%
viability, T/C [14]: 88.8%
viability, T/C [15]: 105%
viability, T/C [16]: 85%
viability, T/C [17]: 98.8%
viability, T/C [18]: 66.3%
viability, T/C [19]: 89.8%
viability, T/C [20]: 93.5%
viability, T/C [21]: 101%
viability, T/C [22]: 93.5%
viability, T/C [23]: 108%
viability, T/C [24]: 59%
viability, T/C [25]: 75%
viability, T/C [26]: 104%
viability, T/C [27]: 118%
viability, T/C [28]: 89.7%
viability, T/C [29]: 96.1%
viability, T/C [30]: 58.8%
viability, T/C [31]: 97.7%
viability, T/C [32]: 108%
viability, T/C [33]: 130%
viability, T/C [34]: 69%
viability, T/C [35]: 94.5%
viability, T/C [36]: 70.2%

CCc1c2c(nc3ccc(O)cc13)-c1cc3c(c(=O)n1C2)COC(=O)[C@]3(O)CC + Cc1cnc(CNC(=O)c2c(=O)c3ccc(N4CCCN(C)CC4)nc3n3c2sc2ccccc23)cn1
IC50 (second compound 0.0316 µM): 0.00807 µM
IC50 (second compound 0.1 µM): 0.0118 µM
IC50 (second compound 0.316 µM): 0.0114 µM
IC50 (second compound 1 µM): 0.00752 µM
IC50 (second compound 3.16 µM): 0.0133 µM
IC50 (second compound 10 µM): 0.0127 µM
viability, T/C [1]: 101%
viability, T/C [2]: 70.3%
viability, T/C [3]: 50.2%
viability, T/C [4]: 17.3%
viability, T/C [5]: 6.2%
viability, T/C [6]: 2.76%
viability, T/C [7]: 95.2%
viability, T/C [8]: 85.8%
viability, T/C [9]: 57%
viability, T/C [10]: 13.7%
viability, T/C [11]: 8.95%
viability, T/C [12]: 3.1%
viability, T/C [13]: 101%
viability, T/C [14]: 73.4%
viability, T/C [15]: 63.1%
viability, T/C [16]: 15.6%
viability, T/C [17]: 10%
viability, T/C [18]: 3.09%
viability, T/C [19]: 109%
viability, T/C [20]: 69.2%
viability, T/C [21]: 42.1%
viability, T/C [22]: 28.1%
viability, T/C [23]: 9.78%
viability, T/C [24]: 2.05%
viability, T/C [25]: 91.8%
viability, T/C [26]: 80.2%
viability, T/C [27]: 54.9%
viability, T/C [28]: 32.5%
viability, T/C [29]: 8.3%
viability, T/C [30]: 2.04%
viability, T/C [31]: 81.3%
viability, T/C [32]: 71.1%
viability, T/C [33]: 59.7%
viability, T/C [34]: 19.4%
viability, T/C [35]: 7.8%
viability, T/C [36]: 1.03%

COc1cccc2c1C(=O)c1c(O)c3c(c(O)c1C2=O)CC(O)(C(=O)CO)CC3OC1CC(N)C(O)C(C)O1 (stereo not drawn) + Cc1cnc(CNC(=O)c2c(=O)c3ccc(N4CCCN(C)CC4)nc3n3c2sc2ccccc23)cn1
IC50 (second compound 0.0316 µM): > 10 µM
IC50 (second compound 0.1 µM): > 10 µM
IC50 (second compound 0.316 µM): 8.33 µM
IC50 (second compound 1 µM): 7.33 µM
IC50 (second compound 3.16 µM): 5.89 µM
IC50 (second compound 10 µM): 6.25 µM
viability, T/C [4]: 112%
viability, T/C (second compound 0.0316 µM, first compound 0.1 µM): 74.6%
viability, T/C [6]: 97.5%
viability, T/C (second compound 0.0316 µM, first compound 1 µM): 93.6%
viability, T/C (second compound 0.0316 µM, first compound 3.16 µM): 80%
viability, T/C (second compound 0.0316 µM, first compound 10 µM): 52.8%
viability, T/C [10]: 107%
viability, T/C (second compound 0.1 µM, first compound 0.1 µM): 76.5%
viability, T/C [12]: 94%
viability, T/C (second compound 0.1 µM, first compound 1 µM): 90.8%
viability, T/C (second compound 0.1 µM, first compound 3.16 µM): 86.5%
viability, T/C (second compound 0.1 µM, first compound 10 µM): 55.2%
viability, T/C [16]: 82.3%
viability, T/C (second compound 0.316 µM, first compound 0.1 µM): 90.4%
viability, T/C [18]: 115%
viability, T/C (second compound 0.316 µM, first compound 1 µM): 98.5%
viability, T/C (second compound 0.316 µM, first compound 3.16 µM): 87%
viability, T/C (second compound 0.316 µM, first compound 10 µM): 42.5%
viability, T/C [22]: 91.5%
viability, T/C (second compound 1 µM, first compound 0.1 µM): 68.4%
viability, T/C [24]: 116%
viability, T/C (second compound 1 µM, first compound 1 µM): 106%
viability, T/C (second compound 1 µM, first compound 3.16 µM): 88%
viability, T/C (second compound 1 µM, first compound 10 µM): 36%
viability, T/C [28]: 69.7%
viability, T/C (second compound 3.16 µM, first compound 0.1 µM): 81.3%
viability, T/C [30]: 78%
viability, T/C (second compound 3.16 µM, first compound 1 µM): 103%
viability, T/C (second compound 3.16 µM, first compound 3.16 µM): 93.4%
viability, T/C (second compound 3.16 µM, first compound 10 µM): 20.1%
viability, T/C [34]: 75.8%
viability, T/C (second compound 10 µM, first compound 0.1 µM): 77.4%
viability, T/C [36]: 109%
viability, T/C (second compound 10 µM, first compound 1 µM): 91.9%
viability, T/C (second compound 10 µM, first compound 3.16 µM): 93.2%
viability, T/C (second compound 10 µM, first compound 10 µM): 22.7%

Cc1[nH]c2ccccc2c1CCNCc1ccc(/C=C/C(=O)NO)cc1 + Cc1cnc(CNC(=O)c2c(=O)c3ccc(N4CCCN(C)CC4)nc3n3c2sc2ccccc23)cn1
IC50 (second compound 0.0316 µM): > 0.316 µM
IC50 (second compound 0.1 µM): > 0.316 µM
IC50 (second compound 0.316 µM): 0.232 µM
IC50 (second compound 1 µM): > 0.316 µM
IC50 (second compound 3.16 µM): 0.226 µM
IC50 (second compound 10 µM): 0.281 µM
viability, T/C [1]: 87.7%
viability, T/C [2]: 99%
viability, T/C [3]: 98%
viability, T/C [4]: 80.6%
viability, T/C [5]: 82.2%
viability, T/C [6]: 52.7%
viability, T/C [7]: 98.3%
viability, T/C [8]: 94.9%
viability, T/C [9]: 88.9%
viability, T/C [10]: 90.5%
viability, T/C [11]: 80.2%
viability, T/C [12]: 59.5%
viability, T/C [13]: 105%
viability, T/C [14]: 90.7%
viability, T/C [15]: 88.6%
viability, T/C [16]: 84.1%
viability, T/C [17]: 99.9%
viability, T/C [18]: 33.9%
viability, T/C [19]: 76.1%
viability, T/C [20]: 87.6%
viability, T/C [21]: 101%
viability, T/C [22]: 102%
viability, T/C [23]: 81.8%
viability, T/C [24]: 53.1%
viability, T/C [25]: 96%
viability, T/C [26]: 100%
viability, T/C [27]: 103%
viability, T/C [28]: 81.4%
viability, T/C [29]: 110%
viability, T/C [30]: 30.2%
viability, T/C [31]: 99.2%
viability, T/C [32]: 108%
viability, T/C [33]: 92.8%
viability, T/C [34]: 94.4%
viability, T/C [35]: 108%
viability, T/C [36]: 44.3%
